Assay results from PMC4492635 (Drug Design, Development and Therapy, 2015).

Tests used:
hHMGR = target: T1, hHMGR (Homo sapiens, UniProt P04035); experiment: Enzymatic assay of recombinant hHMGR; format: biochemical; conditions: result in words, Figure 4
T1 sequence (P04035 450-883 limits assumed): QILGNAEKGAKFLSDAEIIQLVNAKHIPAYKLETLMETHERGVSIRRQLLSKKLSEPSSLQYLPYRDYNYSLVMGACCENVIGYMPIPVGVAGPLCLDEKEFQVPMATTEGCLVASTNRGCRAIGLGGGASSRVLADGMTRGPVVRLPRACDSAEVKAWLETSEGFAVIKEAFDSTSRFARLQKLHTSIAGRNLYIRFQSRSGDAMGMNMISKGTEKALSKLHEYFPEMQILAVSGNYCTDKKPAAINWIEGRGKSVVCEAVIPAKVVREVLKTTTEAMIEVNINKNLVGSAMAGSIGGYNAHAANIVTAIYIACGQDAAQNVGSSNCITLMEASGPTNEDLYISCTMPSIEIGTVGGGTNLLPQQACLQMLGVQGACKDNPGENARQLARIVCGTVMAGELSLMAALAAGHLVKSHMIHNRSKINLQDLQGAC

HepG2 cells = experiment: MTT assay, cellular toxicity on HepG2 cells; format: cell-based; conditions: 24 h treatment, result in words

Row | inhibition of hHMGR activities (hHMGR) | SMILES | cytotoxic effect (HepG2 cells)
1 | no inhibitory capability | Nc1nc(O)c2nc(CNc3ccc(C(=O)N[C@@H](CCC(=O)O)C(=O)O)cc3)cnc2n1 [Compound 10, (2S)-2-[(4-{[(2-amino-4-hydroxypteridin-6-yl)methyl]amino}phenyl) formamido] pentanedioic acid] | –
2 | effectively inhibit | O=C(/C=C/c1ccc(O)c2oc(-c3ccc(O)c(O)c3)cc12)O[C@H](Cc1ccc(O)c(O)c1)C(=O)O [Compound 1, (2r)-3-(3,4-dihydroxyphenyl)-2-[(E)-3-[2-(3,4-dihydroxyphenyl)-7-hydroxy-1-benzofuran-4-yl]prop-2-enoyl] oxypropanoic acid] | –
3 | effectively inhibit | COc1cc(/C=C/C(=O)CC(=O)/C=C/c2ccc(O)c(OC)c2)ccc1O [Compound 3, (1E,6E)-1,7-bis(4-hydroxy-3-methoxyphenyl)-1,6-heptadiene-3,5-dione] | –
4 | effectively inhibit | CCCCCCCCCCCCCCCCCCCCCCO [Compound 8, Docosan-1-ol] | milder cytotoxic effect
